From publication PMC4615156 (Nucleus, 2014)

Target: PCNA (Homo sapiens, UniProt P12004)
Assay: Fixation of live cells labeled with the cell-permeable PIP
Assay type: cell-based
Conditions: PCNA expressing cells labeled live, then 3.7% formaldehyde

Chain of PCNA (P12004 whole entry): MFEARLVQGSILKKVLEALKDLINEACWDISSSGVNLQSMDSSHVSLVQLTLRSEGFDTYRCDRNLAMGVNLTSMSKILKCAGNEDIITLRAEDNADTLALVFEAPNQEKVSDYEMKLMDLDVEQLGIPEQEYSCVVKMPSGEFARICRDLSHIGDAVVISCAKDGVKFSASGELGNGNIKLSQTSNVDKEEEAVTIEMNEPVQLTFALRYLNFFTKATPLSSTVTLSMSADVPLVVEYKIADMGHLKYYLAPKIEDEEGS

RRRQRRKKRG-C C-SAVLQKKITDYFHPKKG-EDA-TAMRA (disulfide) [TAT(-SS-)PL-R]
Labeling of repair sites after fixation of live labeled cells: still marks repair sites
